# Laboratory results as given in ChEMBL document CHEMBL4732232, “Protease targeted COVID-19 drug discovery: What we have learned from the past SARS-CoV inhibitors?” (Eur J Med Chem, 2021).
# How the values were obtained:
# [1] = Inhibition of SARS CoV 3C-like protease using Dabcyl-KTSAVLQSGFRKME-Edans as substrate by fluorometric assay; design: species or system Severe acute respiratory syndrome-related coronavirus
# [2] = Inhibition of MERS CoV 3C-like protease using Dabcyl-KTSAVLQSGFRKME-Edans as substrate by fluorometric assay; design: species or system Middle East respiratory syndrome-related coronavirus
# [3] = system: Severe acute respiratory syndrome-related coronavirus; assay: Irreversible inhibition of SARS CoV 3C-like protease assessed as ratio of Kinact to Ki using Abz-Ser-Val-Thr-Leu-Gln-Ser-Gly-(NO2)Tyr-Arg as substrate by fluorescence method
# [4] = Inhibition of SARS CoV 3C-like protease expressed in Escherichia coli GJ1158 using 2-aminobenzoyl-SVTLQSG-Tyr(NO2)-R as substrate by FRET assay; design: species or system Severe acute respiratory syndrome-related coronavirus
# [5] = Competitive inhibition of SARS CoV 3C-like protease using fluorogenic substrate by Lineweaver-Burk plot analysis; design: species or system Severe acute respiratory syndrome-related coronavirus
# [6] = Inhibition of SARS CoV 3C-like protease; design: species or system Severe acute respiratory syndrome-related coronavirus
# [7] = Inhibition of SARS CoV His-tagged 3C-like protease expressed in Escherichia coli BL21 using Dabcyl-KTSAVLQ-SGFRKME-Edans as substrate by Lineweaver-Burk analysis; design: species or system Severe acute respiratory syndrome-related coronavirus
# [8] = Inhibition of SARS CoV papain-like protease using Arg-Leu-Arg-Gly-Gly-AMC as substrate by fluorescence method; design: species or system Severe acute respiratory syndrome-related coronavirus
# [9] = Inhibition of SARS CoV 3C-like protease using 12-mer fluorogenic peptide Dabcyl-KNSTLQSGLRKE-Edans as substrate incubated for 60 mins by fluorometric assay; design: species or system Severe acute respiratory syndrome-related coronavirus
# [10] = Inhibition of SARS CoV 3C-like protease using Abz-SVTLQSG-Tyr(NO2)R as substrate by fluorescence method; design: species or system Severe acute respiratory syndrome-related coronavirus
# [11] = Inhibition of SARS CoV HKU3984 His-tagged 3C-like protease using H2N-TSAVLQSGFRKW-COOH as substrate by HPLC method; design: species or system Severe acute respiratory syndrome-related coronavirus
structure (smiles),measurement,setting,value
O=C[C@@H](C[C@H]1CCNC1=O)NC(=O)[C@@H](Cc1ccccc1)NC(=O)/C=C/c1ccc(Cl)cc1F,IC50,[1],0.2 µM
same,IC50,[2],4.7 µM
CCOC(=O)C1OC1C(=O)N(CCC(N)=O)NC(=O)[C@H](Cc1ccccc1)NC(=O)[C@H](CC(C)C)NC(=O)OCc1ccccc1 (some centres not stated),Ratio,[3],1900 M⁻¹ s⁻¹
Cc1ccc2nc(-c3ccc(N)cc3)sc2c1S(=O)(=O)O,IC50,[4],4.3 µM
CC(C)[C@H](NC(=O)[C@H](C)NC(=O)OCc1ccccc1)C(=O)C[C@@H](Cc1c[nH]c2ccccc12)[C@@H](O)[C@H](O)[C@H](Cc1c[nH]c2ccccc12)NC(=O)[C@@H](NC(=O)[C@H](C)NC(=O)OCc1ccccc1)C(C)C,Ki,[5],0.073 µM
O=C(/C=C/c1ccccc1)N[C@@H](CC1CCCCC1)C(=O)N[C@@H](C[C@@H]1CCNC1=O)C(=O)C(=O)NCc1ccccc1,IC50,[6],0.71 µM
CC(C)[C@H](NC(=O)[C@H](C)NC(=O)OCc1ccccc1)C(=O)C[C@@H](Cc1ccccc1)[C@@H](O)[C@H](O)[C@H](Cc1ccccc1)NC(=O)[C@@H](NC(=O)[C@H](C)NC(=O)OCc1ccccc1)C(C)C,Ki,[7],0.6 µM
O=C(/C=C/CCc1ccc(O)c(O)c1)CCc1ccc(O)c(O)c1 [DEHYDROHIRSUTANONOL],IC50,[8],4.1 µM
same,IC50,[9],36.2 µM
CC(=O)N[C@H](C(=O)N[C@H](C(=O)N[C@@H](CC(C)C)C(=O)N[C@@H](C[C@@H]1CCNC1=O)C(=O)CN1Cc2cccc([N+](=O)[O-])c2C(=O)N1)[C@@H](C)OCc1ccccc1)C(C)C,IC50,[10],0.6 µM
CC1=C(C(=O)OCCc2ccccc2)C(c2ccccc2[N+](=O)[O-])C2=C(CCCC2=O)N1 (configuration not stated),IC50,[11],2.5 µM
O=C(/C=C/c1ccccc1)N[C@@H](Cc1ccccc1)C(=O)N[C@@H](C[C@@H]1CCNC1=O)C(=O)C(=O)NCc1ccccc1,IC50,[6],1.95 µM
